Measured values as given in ChEMBL document CHEMBL1201862, “PubChem BioAssay data set” (2004).
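How tested: cells in 96-well plates exposed to compound for 48 hours at five concentrations. The concentration for 50% growth inhibition is given as GI50.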 Calls of active or inactive are those of the source. Rule as the data show it: active = GI50 up to about 1.1 µM and inactive = higher.

Columns and labels:
Assay in all cases: inhibition of tumour cell growth, NCI panel, 48 h
[1] = tested on: NCI-H226
[2] = tested on: MDA-MB-435
[3] = tested on: K562
[4] = tested on: HL-60
[5] = tested on: SF-539
[6] = tested on: UACC-257
[7] = tested on: PC-3
[8] = tested on: MDA-MB-231
[9] = tested on: A549
[10] = tested on: 786-0
[11] = tested on: UO-31
[12] = tested on: HCC 2998
[13] = tested on: HOP-62
[14] = tested on: MOLT-4
[15] = tested on: OVCAR-4
[16] = tested on: T47D
[17] = tested on: NCI-H23
[18] = tested on: M14
[19] = tested on: UACC-62
[20] = tested on: MCF7
[21] = tested on: LOX IMVI
[22] = tested on: DU-145
[23] = tested on: IGROV-1
[24] = tested on: U-251
[25] = tested on: KM12
[26] = tested on: OVCAR-5
[27] = tested on: MDA-N
[28] = tested on: SNB-19
[29] = tested on: OVCAR-3
[30] = tested on: SK-MEL-5
[31] = tested on: HCT-116
[32] = tested on: SNB-75
[33] = tested on: OVCAR-8
[34] = tested on: SK-MEL-28
[35] = tested on: COLO 205
[36] = tested on: Malme-3M
[37] = tested on: RPMI-8226
[38] = tested on: SW-620
[39] = tested on: HCT-15
[40] = tested on: SK-MEL-2
[41] = tested on: EKVX
[42] = tested on: TK-10
[43] = tested on: NCI/ADR-RES
[44] = tested on: ACHN
[45] = tested on: CCRF-CEM
[46] = tested on: HT-29
[47] = tested on: CAKI-1
[48] = tested on: SK-OV-3
[49] = tested on: NCI-H522
[50] = tested on: SF-295
[51] = tested on: SN12C
[52] = tested on: HOP-92
[53] = tested on: A498
[54] = tested on: SF-268
[55] = tested on: SR
[56] = tested on: RXF 393
[57] = tested on: Hs-578T

Cc1nc(=O)[nH]c2s/c(=N/C3CCCCC3)n(C3CCCCC3)c(=O)c12
GI50 [1]: > 100 µM (inactive)
GI50 [2]: > 100 µM (inactive)
GI50 [3]: > 100 µM (inactive)
GI50 [4]: > 100 µM (inactive)
GI50 [5]: > 100 µM (inactive)
GI50 [6]: > 100 µM (inactive)
GI50 [7]: > 100 µM (inactive)
GI50 [8]: > 100 µM (inactive)
GI50 [9]: > 100 µM (inactive)
GI50 [10]: > 100 µM (inactive)
GI50 [11]: > 100 µM (inactive)
GI50 [12]: > 100 µM (inactive)
GI50 [13]: > 100 µM (inactive)
GI50 [14]: > 100 µM (inactive)
GI50 [15]: > 100 µM (inactive)
GI50 [16]: > 100 µM (inactive)
GI50 [17]: > 100 µM (inactive)
GI50 [18]: > 100 µM (inactive)
GI50 [19]: > 100 µM (inactive)
GI50 [20]: > 100 µM (inactive)
GI50 [21]: > 100 µM (inactive)
GI50 [22]: > 100 µM (inactive)
GI50 [23]: > 100 µM (inactive)
GI50 [24]: > 100 µM (inactive)
GI50 [25]: > 100 µM (inactive)
GI50 [26]: > 100 µM (inactive)
GI50 [27]: > 100 µM (inactive)
GI50 [28]: > 100 µM (inactive)
GI50 [29]: > 100 µM (inactive)
GI50 [30]: > 100 µM (inactive)
GI50 [31]: > 100 µM (inactive)
GI50 [32]: > 100 µM (inactive)
GI50 [33]: > 100 µM (inactive)
GI50 [34]: > 100 µM (inactive)
GI50 [35]: > 100 µM (inactive)
GI50 [36]: > 100 µM (inactive)
GI50 [37]: > 100 µM (inactive)
GI50 [38]: > 100 µM (inactive)
GI50 [39]: > 100 µM
GI50 [40]: > 100 µM (inactive)
GI50 [41]: > 100 µM (inactive)
GI50 [42]: > 100 µM (inactive)
GI50 [43]: > 100 µM (inactive)
GI50 [44]: > 100 µM (inactive)
GI50 [45]: > 100 µM (inactive)
GI50 [46]: > 100 µM (inactive)
GI50 [47]: > 100 µM (inactive)
GI50 [48]: > 100 µM (inactive)
GI50 [49]: > 100 µM (inactive)
GI50 [50]: > 100 µM (inactive)
GI50 [51]: > 100 µM (inactive)
GI50 [52]: > 100 µM (inactive)
GI50 [53]: > 100 µM (inactive)

CN(C)c1nc2oc(-c3ccccc3)c(-c3ccccc3)c2c2nncn12
GI50 [1]: > 100 µM (inactive)
GI50 [2]: > 100 µM (inactive)
GI50 [3]: > 100 µM (inactive)
GI50 [5]: > 100 µM (inactive)
GI50 [6]: > 100 µM (inactive)
GI50 [8]: > 100 µM (inactive)
GI50 [9]: > 100 µM (inactive)
GI50 [54]: > 100 µM (inactive)
GI50 [10]: > 100 µM (inactive)
GI50 [11]: > 100 µM (inactive)
GI50 [12]: > 100 µM (inactive)
GI50 [14]: > 10 µM (inactive)
GI50 [15]: > 100 µM (inactive)
GI50 [16]: > 100 µM (inactive)
GI50 [17]: > 100 µM (inactive)
GI50 [18]: > 100 µM (inactive)
GI50 [19]: > 100 µM (inactive)
GI50 [20]: > 100 µM (inactive)
GI50 [21]: > 100 µM (inactive)
GI50 [22]: > 100 µM (inactive)
GI50 [23]: > 100 µM (inactive)
GI50 [24]: > 100 µM (inactive)
GI50 [25]: > 100 µM (inactive)
GI50 [26]: > 100 µM (inactive)
GI50 [28]: > 100 µM (inactive)
GI50 [31]: > 100 µM (inactive)
GI50 [32]: 53.5 µM (inactive)
GI50 [55]: > 100 µM (inactive)
GI50 [33]: > 100 µM (inactive)
GI50 [56]: > 100 µM (inactive)
GI50 [34]: > 100 µM (inactive)
GI50 [35]: > 100 µM (inactive)
GI50 [57]: > 100 µM (inactive)
GI50 [37]: > 100 µM (inactive)
GI50 [38]: > 100 µM (inactive)
GI50 [39]: > 100 µM
GI50 [41]: > 100 µM (inactive)
GI50 [42]: > 100 µM (inactive)
GI50 [43]: > 100 µM (inactive)
GI50 [44]: > 100 µM (inactive)
GI50 [45]: > 100 µM (inactive)
GI50 [46]: > 100 µM (inactive)
GI50 [47]: > 100 µM (inactive)
GI50 [48]: > 100 µM (inactive)
GI50 [49]: > 100 µM (inactive)
GI50 [50]: > 100 µM (inactive)
GI50 [51]: > 100 µM (inactive)
GI50 [52]: > 100 µM (inactive)
GI50 [53]: > 100 µM (inactive)
